Reference: patent publication US8962842B2, “2-pyridone antimicrobial compositions” (priority 2010, dated 2015)
In brackets after ≈: the same amount, converted by molar mass. Like-named read-outs stand apart in the source and are kept apart here.

How the values were obtained:
[1] = system: Streptococcus pneumonia (5 strains); assay: MIC range, broader panel of Quotient Bioresearch strains (Table 3); conditions: Streptococcus pneumoniae; for MIC50: read-out: MIC Range Median, Streptococcus pneumonia (5 strains)
[2] = system: Burkholderia cepacia (5 strains); assay: MIC range, broader panel of Quotient Bioresearch strains (Table 4); type: cell-based; conditions: for MIC50: read-out: MIC Range Median, Burkholderia cepacia (5 strains)
[3] = system: Enterococcus faecalis (5 strains); assay: MIC range, broader panel of Quotient Bioresearch strains (Table 3); conditions: for MIC50: read-out: MIC Range Median, Enterococcus faecalis (5 strains)
[4] = system: Acinetobacter baumannii (12 strains); assay: MIC range, broader panel of Quotient Bioresearch strains (Table 4); type: cell-based; conditions: for MIC50: read-out: MIC Range Median, Acinetobacter baumannii (12 strains)
[5] = system: Escherichia coli (6 strains); assay: as above; type: cell-based; conditions: for MIC50: read-out: MIC Range Median, Escherichia coli (6 strains)
[6] = system: Staphylococcus aureus (16 strains); assay: MIC range, broader panel of Quotient Bioresearch strains (Table 3); conditions: for MIC50: read-out: MIC Range Median, Staphylococcus aureus (16 strains)
[7] = system: Klebsiella pneumonia (4 strains); assay: MIC range, broader panel of Quotient Bioresearch strains (Table 4); type: cell-based; conditions: Klebsiella pneumoniae; for MIC50: read-out: MIC Range Median, Klebsiella pneumonia (4 strains)
[8] = system: Group C Streptococcus (4 strains); assay: MIC range, broader panel of Quotient Bioresearch strains (Table 3); conditions: for MIC50: read-out: MIC Range Median, Group C Streptococcus (4 strains)
[9] = system: Enterococcus faecium (3 strains); assay: as above; conditions: for MIC50: read-out: MIC Range Median, Enterococcus faecium (3 strains)
[10] = system: Streptococcus pyogenes (4 strains); assay: as above; conditions: for MIC50: read-out: MIC Range Median, Streptococcus pyogenes (4 strains)
[11] = system: Pseudomonas aeruginosa (12 strains); assay: MIC range, broader panel of Quotient Bioresearch strains (Table 4); type: cell-based; conditions: for MIC50: read-out: MIC Range Median, Pseudomonas aeruginosa (12 strains)
[12] = system: Haemophilus influenza (5 strains); assay: as above; type: cell-based, Haemophilus influenzae; conditions: for MIC50: 16 h, Median of the strain panel
[13] = read-out: MIC Range High, Streptococcus pneumonia (5 strains)
[14] = read-out: MIC Range Low, Streptococcus pneumonia (5 strains)
[15] = read-out: MIC Range High, Burkholderia cepacia (5 strains)
[16] = read-out: MIC Range Low, Burkholderia cepacia (5 strains)
[17] = read-out: MIC Range High, Enterococcus faecalis (5 strains)
[18] = read-out: MIC Range Low, Enterococcus faecalis (5 strains)
[19] = read-out: MIC Range High, Staphylococcus aureus (16 strains)
[20] = read-out: MIC Range Low, Staphylococcus aureus (16 strains)
[21] = read-out: MIC Range High, Group C Streptococcus (4 strains)
[22] = read-out: MIC Range Low, Group C Streptococcus (4 strains)
[23] = read-out: MIC Range High, Enterococcus faecium (3 strains)
[24] = read-out: MIC Range Low, Enterococcus faecium (3 strains)
[25] = read-out: MIC Range High, Streptococcus pyogenes (4 strains)
[26] = read-out: MIC Range Low, Streptococcus pyogenes (4 strains)
[27] = High of the strain panel, read-out: MIC Range High, Haemophilus influenza (5 strains)
[28] = Low of the strain panel, read-out: MIC Range Low, Haemophilus influenza (5 strains)

Row | SMILES | MIC [1, 13] [µg/mL] | MIC [1, 14] [µg/mL] | MIC50 [1] [µg/mL] | MIC [2, 15] [µg/mL] | MIC [2, 16] [µg/mL] | MIC50 [2] [µg/mL] | MIC [3, 17] [µg/mL] | MIC [3, 18] [µg/mL] | MIC50 [3] [µg/mL] | MIC [6, 19] [µg/mL] | MIC [6, 20] [µg/mL] | MIC50 [6] [µg/mL] | MIC [8, 21] [µg/mL] | MIC [8, 22] [µg/mL] | MIC50 [8] [µg/mL] | MIC [9, 23] [µg/mL] | MIC [9, 24] [µg/mL] | MIC50 [9] [µg/mL] | MIC [10, 25] [µg/mL] | MIC [10, 26] [µg/mL] | also measured
1 | Cc1c(-c2cc(F)c(N)c(F)c2)ccn2c(=O)c(C(=O)[O-])cc(C3CC3)c12.[K+] [Example 39 K salt, potassium 8-(4-amino-3,5-difluoro-phenyl)-1-cyclopropyl-9-methyl-4-oxo-4H-quinolizine-3-carboxylate] | 0.25 | 0.12 | 0.12 | 0.5 | 0.06 | 0.25 | 0.5 | ≤ 0.015 | 0.03 | 0.12 | ≤ 0.015 | 0.06 | 0.12 | 0.03 | 0.09 | 1 | 0.12 | 0.5 | 0.25 | 0.06 | MIC ([4]; read-out: MIC Range High, Acinetobacter baumannii (12 strains)): 16 µg/mL; MIC ([4]; read-out: MIC Range Low, Acinetobacter baumannii (12 strains)): 0.06 µg/mL; MIC50 [4]: 4 µg/mL; MIC ([5]; read-out: MIC Range High, Escherichia coli (6 strains)): 16 µg/mL; MIC ([5]; read-out: MIC Range Low, Escherichia coli (6 strains)): ≤ 0.015 µg/mL; MIC50 [5]: 12 µg/mL; MIC ([7]; read-out: MIC Range High, Klebsiella pneumonia (4 strains)): 32 µg/mL; MIC ([7]; read-out: MIC Range Low, Klebsiella pneumonia (4 strains)): 0.12 µg/mL; MIC50 [7]: 9 µg/mL; MIC50 [10]: 0.12 µg/mL; MIC ([11]; read-out: MIC Range High, Pseudomonas aeruginosa (12 strains)): 16 µg/mL; MIC ([11]; read-out: MIC Range Low, Pseudomonas aeruginosa (12 strains)): 0.5 µg/mL; MIC50 [11]: 4 µg/mL; MIC50 [12]: ≤ 0.015 µg/mL; MIC [12, 27]: ≤ 0.015 µg/mL; MIC [12, 28]: ≤ 0.015 µg/mL
2 | Cc1c(C2=CCNCC2)ccn2c(=O)c(C(=O)O)cc(C3CC3)c12 [Example 42, 1-cyclopropyl-9-methyl-4-oxo-8-(1,2,3,6-tetrahydropyridin-4-yl)-4H-quinolizine-3-carboxylic acid] | 8 (≈ 24.7 µM) | 4 (≈ 12.3 µM) | 4 (≈ 12.3 µM) | 2 (≈ 6.17 µM) | 2 (≈ 6.17 µM) | 2 (≈ 6.17 µM) | 32 (≈ 98.6 µM) | 4 (≈ 12.3 µM) | 4 (≈ 12.3 µM) | 32 (≈ 98.6 µM) | 0.5 (≈ 1.54 µM) | 16.2 (≈ 50.1 µM) | 4 (≈ 12.3 µM) | 2 (≈ 6.17 µM) | 2 (≈ 6.17 µM) | > 32 | 16 (≈ 49.3 µM) | > 32 | 8 (≈ 24.7 µM) | 2 (≈ 6.17 µM) | MIC ([4]; High of the strain panel, read-out: MIC Range High, Acinetobacter baumannii (12 strains)): > 32 µg/mL; MIC ([4]; Low of the strain panel, read-out: MIC Range Low, Acinetobacter baumannii (12 strains)): 0.25 µg/mL (≈ 0.771 µM); MIC50 ([4]; Median of the strain panel): > 32 µg/mL; MIC ([5]; High of the strain panel, read-out: MIC Range High, Escherichia coli (6 strains)): > 32 µg/mL; MIC ([5]; Low of the strain panel, read-out: MIC Range Low, Escherichia coli (6 strains)): 0.06 µg/mL (≈ 0.185 µM); MIC50 ([5]; Median of the strain panel): 32 µg/mL (≈ 98.6 µM); MIC ([7]; High of the strain panel, read-out: MIC Range High, Klebsiella pneumonia (4 strains)): > 32 µg/mL; MIC ([7]; Low of the strain panel, read-out: MIC Range Low, Klebsiella pneumonia (4 strains)): 0.12 µg/mL (≈ 0.37 µM); MIC50 ([7]; Median of the strain panel): 8 µg/mL (≈ 24.7 µM); MIC50 [10]: 3 µg/mL (≈ 9.25 µM); MIC ([11]; High of the strain panel, read-out: MIC Range High, Pseudomonas aeruginosa (12 strains)): > 32 µg/mL; MIC ([11]; Low of the strain panel, read-out: MIC Range Low, Pseudomonas aeruginosa (12 strains)): 1 µg/mL (≈ 3.08 µM); MIC50 ([11]; Median of the strain panel): 32 µg/mL (≈ 98.6 µM); MIC50 [12]: 0.06 µg/mL (≈ 0.185 µM); MIC [12, 27]: 0.06 µg/mL (≈ 0.185 µM); MIC [12, 28]: 0.03 µg/mL (≈ 0.0925 µM)
